Results as given in patent publication US20240246946A1, “MODULATORS OF TREX1” (Constellation Pharmaceuticals, Inc., priority 2021, published 2024).
pIC50: −log10 of the molar value.

Key:
full length human TREX1 = biological target: T1, full length human TREX1 (Homo sapiens, UniProt Q9NSU2); experiment: hTREX1 Biochemical Assay (fluorescence, dsDNA substrate degradation); conditions: biochemical, read-out: hTREX1 IC50
T1 construct: N-terminally His-Tev tagged full length human TREX1; made in house; host or cells: E. coli
T1 sequence (Q9NSU2 1-314): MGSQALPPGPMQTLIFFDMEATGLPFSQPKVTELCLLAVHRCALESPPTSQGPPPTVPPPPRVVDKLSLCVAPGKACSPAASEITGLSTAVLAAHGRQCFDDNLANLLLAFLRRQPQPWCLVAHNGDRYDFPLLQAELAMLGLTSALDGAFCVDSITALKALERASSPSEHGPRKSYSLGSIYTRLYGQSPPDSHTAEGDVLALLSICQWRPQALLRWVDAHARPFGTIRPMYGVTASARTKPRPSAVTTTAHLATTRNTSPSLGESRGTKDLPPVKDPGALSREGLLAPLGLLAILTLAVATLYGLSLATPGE
Procedure, shortened: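 Cleavage of 60 nM TEX615/quencher-labelled dsDNA in pH 7.4 Tris buffer with 5 mM MgCl2, 1.0% DMSO, run 18 hours at 25° C, EDTA-quenched; fluorescence read-out.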

hTREX1 = biological target: T2, hTREX1 (Homo sapiens, UniProt Q9NSU2); experiment: hTREX1 HCT116 Cell Assay (HCT116 dual cells, Lucia luciferase reporter of Type I interferon induction); format: cell-based; conditions: TREX1i 4 h before pBR322/BstNI transfection, read after 48 h
T2 construct: host or cells: HCT116 dual cells
T2 sequence (Q9NSU2 1-314): T1 sequence (Q9NSU2 1-314)
Procedure, shortened: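 HCT116 dual cells carrying an ISRE-type STAT1/STAT2-driven secreted Lucia luciferase reporter were pretreated with TREX1 inhibitor for 4 h (≤0.1% DMSO), then transfected with pBR322/BstNI DNA (100 ng/well, Lipofectamine LTX). Luciferase in medium read after 48 h at 37 °C.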

full length mouse TREX1 = biological target: T3, full length mouse TREX1 (Mus musculus, UniProt Q91XB0); experiment: mTREX1 Biochemical Assay (fluorescence, dsDNA substrate degradation); conditions: biochemical, read-out: mTREX1 IC50
T3 construct: N-terminally His-Tev tagged full length mouse TREX1; made in house; host or cells: E. coli
T3 sequence (Q91XB0 1-314): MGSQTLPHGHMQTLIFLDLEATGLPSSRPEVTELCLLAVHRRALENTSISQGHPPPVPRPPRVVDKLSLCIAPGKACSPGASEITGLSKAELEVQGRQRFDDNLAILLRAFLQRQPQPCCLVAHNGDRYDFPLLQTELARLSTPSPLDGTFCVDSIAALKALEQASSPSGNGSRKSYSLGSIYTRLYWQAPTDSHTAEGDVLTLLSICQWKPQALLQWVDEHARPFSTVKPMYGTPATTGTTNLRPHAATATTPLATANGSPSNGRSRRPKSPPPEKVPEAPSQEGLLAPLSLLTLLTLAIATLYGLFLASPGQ
Procedure, shortened: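 Reaction run 18 h at 25° C. with 60 nM TEX615/quencher-labelled dsDNA and 6 pM mouse TREX1 in Tris buffer (pH 7.4, 5 mM MgCl2, 1.0% DMSO), enzyme having sat 4 h with compound across 10 concentrations. EDTA quench; substrate degradation measured as fluorescence increase.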

[1] = biological target: T4, human TREX2 (residues M44-A279) (Homo sapiens, UniProt Q9BQ50); experiment: hTREX2 Biochemical Assay (fluorescence, dsDNA substrate degradation); conditions: biochemical selectivity for hTREX1 vs hTREX2
T4 construct: human TREX2 (residues M44-A279, expressed in E. coli); made in house; host or cells: E. coli
T4 sequence (Q9BQ50 44-279 isoform Q9BQ50-1): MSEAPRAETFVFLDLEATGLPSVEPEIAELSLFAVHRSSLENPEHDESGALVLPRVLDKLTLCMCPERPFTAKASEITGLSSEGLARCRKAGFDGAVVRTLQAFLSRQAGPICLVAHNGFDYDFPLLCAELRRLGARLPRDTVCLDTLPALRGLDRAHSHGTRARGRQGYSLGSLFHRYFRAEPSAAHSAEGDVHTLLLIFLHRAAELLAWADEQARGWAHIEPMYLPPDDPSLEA
Procedure, shortened: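 N-His-Tev E. coli enzyme (50 pM) pre-incubated with compound 4 h at 25 °C, then 60 nM TEX615/quencher dsDNA added; 18 h at 25 °C, pH 7.4 Tris buffer with 5 mM MgCl2, 1.0% DMSO. EDTA-quenched; fluorescence 570 ex/615 em from liberated fluorophore, 10-point dose-response.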

pIC50 (full length human TREX1)	pIC50 (hTREX1)	pIC50 (full length mouse TREX1)	hTREX1 vs hTREX2 selectivity [1]	Structure (SMILES)
8.00 to 9.00	< 7.00	< 8.00	A (A = <25 fold selective for hTREX1)	CCn1cc(C(c2ccccc2Cl)C(C)c2nc(C(=O)Nc3cnoc3)c(O)c(=O)n2C)cn1 (single isomer, unassigned) [Example 85 D1E2]
< 8.00	< 7.00	< 8.00	A (A = <25 fold selective for hTREX1)	CCn1cc(C(c2ccccc2Cl)C(C)c2nc(C(=O)Nc3cnoc3)c(O)c(=O)n2C)cn1 (single isomer, unassigned) [Example 85 D2E1]
> 9.00	< 7.00	8.00 to 9.00	A (A = <25 fold selective for hTREX1)	CC(c1nc(C(=O)Nc2cnoc2)c(O)c(=O)n1C)C(c1cnn(CC2COC2)c1)c1ccccc1Cl (single isomer, unassigned) [Example 88 D1E1]
> 9.00	> 8.00	8.00 to 9.00	C (C = >50 fold selective for hTREX1)	CC(c1nc(C(=O)Nc2cnoc2)c(O)c(=O)n1C)C(c1cc(F)ccc1Cl)c1cn(C)nc1C#N (single isomer, unassigned) [Example 89 D1E2]
< 8.00	< 7.00	< 8.00	A (A = <25 fold selective for hTREX1)	CC(c1nc(C(=O)Nc2cnoc2)c(O)c(=O)n1C)C(c1ccccc1C#N)c1cn(C)nc1F (single isomer, unassigned) [Example 91 D1E2]
8.00 to 9.00	< 7.00	8.00 to 9.00	A (A = <25 fold selective for hTREX1)	CC(c1nc(C(=O)Nc2cnoc2)c(O)c(=O)n1C)C(c1cnn(CC(C)(C)O)c1)c1cc(F)ccc1Cl (single isomer, unassigned) [Example 92 D1E1]
8.00 to 9.00	< 7.00	< 8.00	A (A = <25 fold selective for hTREX1)	COC(C)(C)Cn1cc(C(c2cc(F)ccc2Cl)C(C)c2nc(C(=O)Nc3cnoc3)c(O)c(=O)n2C)cn1 (single isomer, unassigned) [Example 93 D1E2]
> 9.00	> 8.00	8.00 to 9.00	C (C = >50 fold selective for hTREX1)	Cc1n[nH]c(C)c1C(c1ccccc1C#N)C(C)c1nc(C(=O)Nc2cnoc2)c(O)c(=O)n1C (single isomer, unassigned) [Example 95 D1E1]
< 8.00	< 7.00	< 8.00	A (A = <25 fold selective for hTREX1)	Cc1n[nH]c(C)c1C(c1ccccc1C#N)C(C)c1nc(C(=O)Nc2cnoc2)c(O)c(=O)n1C (single isomer, unassigned) [Example 95 D1E2]
> 9.00	< 7.00	8.00 to 9.00	A (A = <25 fold selective for hTREX1)	CC(c1nc(C(=O)Nc2cnoc2)c(O)c(=O)n1C)C(c1ccccc1Cl)c1cnn(C)c1C#N (single isomer, unassigned) [Example 96 D1E1]
> 9.00	> 8.00	8.00 to 9.00	C (C = >50 fold selective for hTREX1)	CC(c1nc(C(=O)Nc2cnoc2)c(O)c(=O)n1C)C(c1ccccc1Cl)c1cnn(C)c1C#N (single isomer, unassigned) [Example 96 D2E2]
8.00 to 9.00	< 7.00	8.00 to 9.00	C (C = >50 fold selective for hTREX1)	COCCn1cc(C(c2cc(F)ccc2Cl)C(C)c2nc(C(=O)Nc3cnoc3)c(O)c(=O)n2C)cn1 (single isomer, unassigned) [Example 97 D1E1]
8.00 to 9.00	< 7.00	< 8.00	A (A = <25 fold selective for hTREX1)	CC(c1nc(C(=O)Nc2cnoc2)c(O)c(=O)n1C)C(c1cnn(CC(C)(C)C#N)c1)c1cc(F)ccc1Cl (single isomer, unassigned) [Example 99 D1E1]
8.00 to 9.00	< 7.00	8.00 to 9.00	A (A = <25 fold selective for hTREX1)	CC(c1nc(C(=O)Nc2cnoc2)c(O)c(=O)n1C)C(c1cnn(C(C)(C)CC#N)c1)c1cc(F)ccc1Cl (single isomer, unassigned) [Example 100 D1E1]
> 9.00	7.00 to 8.00	8.00 to 9.00	C (C = >50 fold selective for hTREX1)	CC(c1nc(C(=O)Nc2cnoc2)c(O)c(=O)n1C)C(c1cnn(CCOC(F)(F)F)c1)c1cc(F)ccc1C#N (single isomer, unassigned) [Example 101 D1E2]
< 8.00	< 7.00	< 8.00	A (A = <25 fold selective for hTREX1)	COCCn1cc(C(c2cc(F)ccc2C#N)C(C)c2nc(C(=O)Nc3cnoc3)c(O)c(=O)n2C)c(C)n1 (single isomer, unassigned) [Example 103 D1E1]

Structure (SMILES)	pIC50 (full length human TREX1)	pIC50 (hTREX1)	pIC50 (full length mouse TREX1)	hTREX1 vs hTREX2 selectivity [1]
Cc1nccc(C(c2ccccc2C#N)C(C)c2nc(C(=O)Nc3cnoc3)c(O)c(=O)n2C)n1 (single isomer, unassigned) [Example 83 D2E1]	8.00 to 9.00	< 7.00	< 8.00	B (B = 25 to 50-fold selective for hTREX1)
Cc1cnn(C)c1C(c1ccccc1C#N)C(C)c1nc(C(=O)Nc2cnoc2)c(O)c(=O)n1C (single isomer, unassigned) [Example 84 D1E1]	> 9.00	7.00 to 8.00	8.00 to 9.00	B (B = 25 to 50-fold selective for hTREX1)
CCn1cc(C(c2ccccc2Cl)C(C)c2nc(C(=O)Nc3cnoc3)c(O)c(=O)n2C)cn1 (single isomer, unassigned) [Example 85 D1E1]	> 9.00	7.00 to 8.00	> 9.00	B (B = 25 to 50-fold selective for hTREX1)
CC(c1nc(C(=O)Nc2cnoc2)c(O)c(=O)n1C)C(c1cnn(CC(C)(C)O)c1)c1ccccc1Cl (single isomer, unassigned) [Example 86 D1E1]	> 9.00	< 7.00	8.00 to 9.00	B (B = 25 to 50-fold selective for hTREX1)
COC(C)(C)Cn1cc(C(c2cc(F)ccc2Cl)C(C)c2nc(C(=O)Nc3cnoc3)c(O)c(=O)n2C)cn1 (single isomer, unassigned) [Example 93 D1E1]	8.00 to 9.00	7.00 to 8.00	8.00 to 9.00	B (B = 25 to 50-fold selective for hTREX1)
CC(c1nc(C(=O)Nc2cnoc2)c(O)c(=O)n1C)C(c1cnn(CC2COC2)c1)c1cc(F)ccc1Cl (single isomer, unassigned) [Example 94 D1E1]	8.00 to 9.00	< 7.00	8.00 to 9.00	B (B = 25 to 50-fold selective for hTREX1)
CC(c1nc(C(=O)Nc2cnoc2)c(O)c(=O)n1C)C(c1cnn(CCOC(F)(F)F)c1)c1cc(F)ccc1Cl (single isomer, unassigned) [Example 98 D1E1]	8.00 to 9.00	< 7.00	8.00 to 9.00	B (B = 25 to 50-fold selective for hTREX1)
CC(c1nc(C(=O)Nc2cnoc2)c(O)c(=O)n1C)C(c1cnn(CC(F)F)c1)c1cc(F)ccc1C#N (single isomer, unassigned) [Example 102 D1E2]	> 9.00	7.00 to 8.00	8.00 to 9.00	B (B = 25 to 50-fold selective for hTREX1)
